Data set [1] is described as follows: Active evaluation (USP23 NF/21) of white petrolatum ointment base formula, three samples. Type of data set: physicochemical. Particulars: Samples 1-3 from different parts of the vessel, specification 90.0 to 110.0%. As for the experimental part:
As for the ointment base determination, an ointment base having the following components was tested: white petrolatum (carrier), NF 85 mineral oil (texture and appearance modifier), PEG 40 hydrogenated castor oil (solvent), glycerin (moistener), butyl hydroxy toluene (antioxidant), methyl paraben and propyl paraben (preservatives), mupirocin and betamethasone dipropionate (active ingredients). The manufacture process was the following: In an appropriate size vessel the white petrolatum, mineral oil and glycerin were placed, this mixture was heated up to a temperature of 75° C. and then the butyl hydroxy toluene with the parabens was dissolved; separately in other suitable size vessel the PEG 40 hydrogenated castor oil was placed, heated up to a 60° C. temperature and mupirocin and betamethasone dipropionate were solved therein; when both mixtures were at 60° C. they were mixed and the final product was obtained after lowering the temperature with constant mixing until reaching ambient temperature.
(§1) Once the product was obtained three samples were analyzed, collected from different parts of the vessel containing the product, by Active Evaluation techniques reported for each of them in the individual monographs included in USP23 NF/21.

Data set [2] can be described thus: Incompatibility tests, active evaluation immediately after preparation. Type of data set: physicochemical. Also noted: unit not given here. Particulars: for Active evaluation, Test 1: actives + PEG 40 hydrogenated castor oil, analysed immediately after preparation; for Active evaluation, Test 2: as Test 1 + butyl hydroxy toluene; for Active evaluation, Test 3: as Test 2 + propyl paraben; for Active evaluation, Test 4: as Test 3 + methyl paraben; for Active evaluation, Test 5: as Test 4 + glycerin; for Active evaluation, Test 6: as Test 5 + mineral oil; for Active evaluation, Test 7: as Test 6 + white petrolatum. As for the experimental part:
In order to test the possible incompatibility of mupirocin with one of the excipients the following tests reported in Table No. 4 were performed and the results are the following: [table]

Data set [3] in a line: Active evaluation (USP23 NF/21) of polyethylene glycol based formula, three samples. Type of data set: physicochemical. Particulars: formula with PEG 40 hydrogenated castor oil, polyethylene glycol 600, PEG 150 distearate, methyl paraben; Samples 1-3; specification 90.0 to 110.0%. The procedure: Taking the experience that mupirocin and betamethasone dipropionate are soluble at 60° C. in PEG 40 hydrogenated castor oil and in polyethylene glycol 600 (according to Table No. 2), a formulation having the following ingredients is proposed: mupirocin and betamethasone dipropionate (active ingredients), PEG 40 hydrogenated castor oil (cosolvent), polyethylene glycol 600 (balance excipient or carrier), PEG 150 distearate (thickener) and methyl paraben (preservative). The manufacturing process was the following: In an appropriate size vessel the polyethylene glycol 600 and PEG 40 hydrogenated castor oil were placed, this mixture was heated up to a temperature of 70° C. and then the methyl paraben, mupirocin and betamethasone dipropionate were dissolved; once all the above ingredients were dissolved, the temperature was lowered with constant mixing until reaching 60° C.; it was then added the PEG 150 distearate and continued mixing until the mixture was homogenous; the final product was obtained after lowering the temperature with constant mixing until reaching ambient temperature.
as §1

The nature of data set [4]: Simple incorporation of the active in white petrolatum at 60° C. Type of data set: physicochemical. The note with it: incorporated in white petrolatum at 60° C.; cream color gummy hard precipitate forms. As for the experimental part:
According to the results it can be concluded that mupirocin in the presence of white petrolatum undergoes a possible chemical degrading. It then followed a simple incorporation of the active in the white petrolatum at a temperature of 60° C. and it was seen that immediately a cream color precipitate forms having a gummy appearance and hard. […] Therefore, this ointment base with mupirocin is discarded.

A short description of the next data set: Bactericide action tests. Particulars: at the concentrations obtained in a 2% topical formulation.

2 compounds from patent publication US8349889B2, “Skin-care preparations containing mupirocin and betamethasone dipropionate” (Laboratorios Dermatologicos Darier, S.A. DE C.V., priority 2005, dated 2013) can be followed below.

Values joined by “and” are separate entries in the source; they are usually repeats but may differ in a detail not shown here. Equal entries are not always repeated.

With `CCC(=O)OCC(=O)[C@@]1(OC(=O)CC)[C@@H](C)C[C@H]2[C@@H]3CCC4=CC(=O)C=C[C@]4(C)[C@@]3(F)[C@@H](O)C[C@@]21C` [Betamethasone dipropionate], in data set [1], the “Evaluation Results” value was 100.6% and 100.2%. In data set [2], the “Active evaluation, Test 1” value worked out at 100.2; the “Active evaluation, Test 2” value amounted to 100.3; the “Active evaluation, Test 3” value amounted to 100.2; the “Active evaluation, Test 4” value is 99.8. For the same compound, in data set [2], the “Active evaluation, Test 5” value is 100.2; the “Active evaluation, Test 6” value stood at 100.4; the “Active evaluation, Test 7” value turned out to be 99.3. The “Evaluation Results” value in data set [3] was 99.8% and 100.3% and 100.1%.
Take `C/C(=C\C(=O)OCCCCCCCCC(=O)O)C[C@@H]1OC[C@H](C[C@@H]2O[C@H]2[C@@H](C)[C@H](C)O)[C@@H](O)[C@H]1O` [Mupirocin]: the “Evaluation Results” value in data set [1] was 70.5% and 71.2% and 70.7%. In data set [2], the “Active evaluation, Test 1” value was determined as 98.8; the “Active evaluation, Test 2” value turned out to be 99.3; the “Active evaluation, Test 3” value amounted to 98.7; the “Active evaluation, Test 4” value is reported as 98.9. Also, in data set [2], the “Active evaluation, Test 5” value was 99.0; the “Active evaluation, Test 6” value is 98.8; the “Active evaluation, Test 7” value came out at 69.8. In addition, the “Evaluation Results” value in data set [3] was 98.7% and 99.1% and 99.4%. Further, in data set [4], the “Compatibility with white petrolatum” value is given as “incompatible with white petrolatum”. Moreover, the bactericide action entry in “Bactericide action tests” is given as “has bactericide action”.
